The results in this text go back to BindingDB's records for patent US20240043470 (Cornell University, 2024).

The target of test [1] is T1, Proteasome subunit beta type-5 (Homo sapiens, UniProt P28074).
T1 sequence (P28074 whole entry): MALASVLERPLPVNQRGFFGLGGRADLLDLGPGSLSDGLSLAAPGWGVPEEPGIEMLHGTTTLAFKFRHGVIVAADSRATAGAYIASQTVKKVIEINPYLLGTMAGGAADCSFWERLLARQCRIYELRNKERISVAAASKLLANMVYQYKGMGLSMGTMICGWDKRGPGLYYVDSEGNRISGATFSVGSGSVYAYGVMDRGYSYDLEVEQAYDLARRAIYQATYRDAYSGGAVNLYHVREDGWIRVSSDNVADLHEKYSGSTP
Briefly: IC50 Determination.

In test [2] the target is T2, Proteasome subunit beta type-8 (Homo sapiens, UniProt P28062).
T2 sequence (P28062 whole entry): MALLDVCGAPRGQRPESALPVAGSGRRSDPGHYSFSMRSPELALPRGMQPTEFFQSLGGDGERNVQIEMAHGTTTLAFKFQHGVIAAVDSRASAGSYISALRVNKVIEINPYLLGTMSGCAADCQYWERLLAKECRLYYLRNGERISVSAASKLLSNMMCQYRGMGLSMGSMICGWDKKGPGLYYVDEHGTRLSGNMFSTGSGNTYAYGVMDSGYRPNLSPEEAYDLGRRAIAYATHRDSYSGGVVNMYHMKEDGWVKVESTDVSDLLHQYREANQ
The experiment in a line: IC50 Determination.

A word on the IC50: it is the concentration needed to halve the response being measured. A lower IC50 goes with greater potency. Regarding `O=C1CCc2cccc(c2)OCCCC[C@@H](C(=O)NCc2ccccc2F)NC(=O)[C@H](CC(=O)N2CCC[C@@H]2c2ccccc2)N1` [US20240043470, Compound 3-18], the values for the IC50 in test [1] and in test [2] were 44.3 µM and 3 µM, respectively.

The compound `CC(=O)N[C@H]1CCCCOc2cccc(c2)C[C@@H](C(=O)NCC(F)(F)F)NC(=O)[C@H](CCc2ccccc2)NC1=O` [US20240043470, Compound 3-03] had an IC50 in test [1] of 11.9 µM.

For `O=C(N[C@H]1Cc2cccc(c2)Oc2ccc(cc2)C[C@@H](C(=O)NCc2ccccc2F)NC(=O)[C@H](CC(=O)N2CCC[C@@H]2c2ccccc2)NC1=O)c1ccccc1` [US20240043470, Compound 2-06], the IC50 in test [2] was found to be 19.3 µM.

For the compound `O=C1N[C@@H](CC(=O)N2CCCC2)C(=O)N[C@H](C(=O)NCc2cccc3ccccc23)CCCCCCCCC[C@H]1Cc1ccccc1` [US20240043470, Compound 4-03], in test [2], the IC50 was 3.52 µM.

For the compound `O=C(NC1Cc2cccc(c2)Oc2ccc(cc2)CC(C(=O)NCc2ccccc2F)NC(=O)C(CC(=O)N2CCC[C@@H]2c2ccccc2)NC1=O)c1ccccc1` (stereo partly specified) [US20240043470, Compound 2-07], the IC50 in test [1] is greater than 100 µM; in test [2] it was 26.8 µM.

Regarding `CC(=O)N[C@H]1Cc2cccc(c2)Oc2ccc(cc2)C[C@@H](C(=O)NCc2ccccc2F)NC(=O)[C@H](CC(=O)N2CCC[C@@H]2c2ccccc2)NC1=O` [US20240043470, Compound 2-04], the IC50 turned out to be 30.7 µM in test [1] and 9.1 µM in test [2].

Take `CC(=O)NC1Cc2cccc(c2)Oc2ccc(cc2)CC(C(=O)NCc2ccccc2F)NC(=O)C(CC(=O)N2CCC[C@@H]2c2ccccc2)NC1=O` (stereo partly specified) [US20240043470, Compound 2-05]: the IC50 is 88.4 µM in test [1] and 35.9 µM in test [2].
